According to article PMC12388496, “Discovery of (E)-1,3-Diphenyl-2-Propen-1-One Derivatives as Potent and Orally Active NLRP3 Inflammasome Inhibitors for Colitis” (Molecules, 2025):

Columns and labels:
NLRC4 inflammasome = NLRC4 inflammasome activation induced by S.typhi in BMDMs; type: cell-based, mouse; conditions: F14 10 μM, LPS-primed BMDMs
Excerpt: The NLRP3 inflammasome can be activated by various stimuli, such as microbial toxins and urate crystals. This process plays a central role in the pathogenesis of many inflammatory diseases. To assess whether F14 exerts a broad-spectrum inhibitory effect on NLRP3 inflammasome activation, we used three different activators—ATP, MSU, and Nigericin to stimulate BMDMs. […] Among the inflammasome family, NLRC4 and AIM2 are also protein complexes involved in the innate immune response, playing key roles in inflammatory regulation during infection and tissue damage. Poly (dA:dT) was used to induce AIM2 activation, while S.typhi was employed to stimulate NLRC4 activation.
The LPS concentration was 200 ng/mL to pretreat BMDM cells for 3 h, then F14 (10 μM) was added to treat the cells for 30 min, and then each inducer—Nigericin (10 μM, 0.5 h), ATP (2.5 mM, 0.5 h), MSU (150 μg/mL, 4 h), S.typhi (4 h), and poly-(dA:dT) (0.5 μg/mL, 4 h)—were added for stimulation. (A) F14 has a broad-spectrum inhibitory effect on NLRP3 inflammasome activation. (B) F14 has a specific inhibitory effect on NLRP3 inflammasome activation. Data are presented as the mean ± SEM (n = 3). *** p < 0.001 vs. the model group. NS, not significant.

[1] = MTT assay, HepaRG cytotoxicity; type: cell-based; conditions: human, HepaRG cells, n = 3
Description: HepaRG cells in the logarithmic growth phase (10^5 cells/mL), inoculate them into a 96-well plate, and culture overnight in a 37 °C, 5% CO2 incubator. Add compounds at different concentrations and continue culturing for 24 h. Add 20 μL of MTT solution, incubate for 4 h, discard the supernatant, and add DMSO to dissolve.

BMDM cells = assay: Flow cytometry apoptosis assay kit (pyroptosis) in BMDM cells under LPS/Nigericin; type: cell-based, mouse; conditions: vs LPS/Nigericin group, more pronounced at higher concentrations
Excerpt: Pyroptosis is a form of programmed cell death, typically triggered by the activation of inflammasomes within the cell. It is characterized by the rupture of the cell membrane, releasing cellular contents (such as Lactate Dehydrogenase, LDH), which enhances the inflammatory response. Unlike apoptosis, pyroptosis is initiated through the activation of inflammasomes, involving distinct molecular mechanisms, and is often accompanied by cell swelling and rupture. In contrast, apoptosis is triggered by the activation of Caspase-3, leading to systemic degradation within the cell while maintaining the integrity of the cell membrane. The cell undergoes controlled self-degradation without provoking an immune response. […]
Figure 4 F14 inhibits NLRP3 inflammasome activation, leading to cell pyroptosis. […] All values given are best readings. / LPS/Nigericin: Q1-UL 0.83%, Q1-UR 79.53%, Q1-LL 14.81%, Q1-LR 4.83% uncertain / F14 10 μM: Q1-UL 0.52%, Q1-UR 48.44%, Q1-LL 45.87%, Q1-LR 5.17% uncertain / F14 5 μM: Q1-UL 1.05%, Q1-UR 58.47%, Q1-LL 36.16%, Q1-LR 4.32% uncertain / F14 2.5 μM: Q1-UL 0.97%, Q1-UR 69.26%, Q1-LL 24.69%, Q1-LR 5.08% uncertain / The Control plot in panel A (Q1-UL 0.83%, Q1-UR 24.77%, Q1-LL 69.90%, Q1-LR 4.49%) is left out because it is not a substance. / LPS/Nigericin is the stimulus rather than a test compound. […]

NLRP3 inflammasome = assay: Western blot of NLRP3 inflammasome proteins in BMDMs; type: cell-based, mouse; conditions: BMDM, LPS and Nigericin
Description: To further investigate the potential molecular mechanisms of compound F14, an in vitro inflammation model was constructed using BMDM cells.
Inoculate BMDMs cells into a 6-well plate with 4-6 × 10^6 cells per well and culture overnight. Pre-treat with LPS (200 ng/mL) for 3 h, then treat with different concentrations of compound F14 for 30 min, and add Nigericin (10 µM) to activate BMDMs for 30 min. Add RIPA (Beyotime Biotechnology, Shanghai, China) for lysis. Select SDS-PAGE with different concentrations for electrophoresis, and then transfer to PVDF membrane (Millipore Immobilon-P, Burlington, MA, USA). Incubate the antibody imprint overnight at 4°C, and then incubate with HRP conjugated secondary antibody for 1 h.

Cc1ccc(C(=O)/C=C/c2cccc(O)c2)c(C)c1 [Compound F14, (E)-1-(2,4-dimethylphenyl)-3-(3-hydroxyphenyl)propyl-2-en-1-one]
activation of NLRC4 inflammasome (NLRC4 inflammasome): no effect | IC50 at 24 h [1]: > 50 µM | viable cell percentage and late apoptotic cell percentage (BMDM cells): significantly improved | protein expression levels of pro-IL-1β, pro-caspase-1, ASC, NEK7 and NLRP3 (NLRP3 inflammasome): no significant effect | protein levels of IL-1β and caspase-1 in the cell supernatant (NLRP3 inflammasome): concentration-dependent inhibitory effect
